Results on 39 molecules are retold here after PMC11855827, “High-Throughput Screening of Five Compound Libraries for Anthelmintic Activity and Toxicity Leads to the Discovery of Two Flavonoid Compounds” (International Journal of Molecular Sciences, 2025).

“And” between values parts separate entries of the source, which are not always exact repeats. Identical values can stand only once. Like-named read-outs stand apart in the source and are kept apart here.

The assay has as its system C. elegans.
Where [1] appears, read: Table S2, C. elegans SS assay, 110 μM, 0 h, averages of 4 data points.
Setting [2] is: Table S2, C. elegans SS assay, 110 μM, 24 h, averages of 4 data points.

For `C=C1C[C@@]23CC[C@H]4[C@@](C)(CCC[C@@]4(C)C(=O)O)[C@@H]2CC[C@]1(O[C@@H]1O[C@H](CO)[C@@H](O)[C@H](O)[C@H]1O[C@@H]1O[C@H](CO)[C@@H](O)[C@H](O)[C@H]1O)C3` [Steviolbioside], the “Percentage of motility inhibition 0 h” value under setting [1] was determined as 10%. Moreover, the “Percentage of motility inhibition 24 h” value under setting [2] is 5%.
On the same counts, the results for `CN[C@@H]1[C@H](O[C@H]2[C@H](O[C@H]3[C@H](O)[C@@H](O)[C@H](N=C(N)N)[C@@H](O)[C@@H]3N=C(N)N)O[C@@H](C)[C@]2(O)C=O)O[C@@H](CO)[C@H](O)[C@H]1O.CN[C@@H]1[C@H](O[C@H]2[C@H](O[C@H]3[C@H](O)[C@@H](O)[C@H](N=C(N)N)[C@@H](O)[C@@H]3N=C(N)N)O[C@@H](C)[C@]2(O)C=O)O[C@@H](CO)[C@H](O)[C@H]1O.O=S(=O)(O)O.O=S(=O)(O)O.O=S(=O)(O)O` [Streptomycin (sulfate)] are 31% and 26%.
Regarding `CC(=O)[N-]S(=O)(=O)c1ccc(N)cc1.[Na+]` [Sulfacetamide (Sodium)], the “Percentage of motility inhibition 0 h” value under setting [1] was 33%. Also, the “Percentage of motility inhibition 24 h” value under setting [2] worked out at 6%.
For `Nc1ccc(S(=O)(=O)Nc2cncc(Cl)n2)cc1` [Sulfaclozine], under setting [1], the “Percentage of motility inhibition 0 h” value stood at 3%. Further, the “Percentage of motility inhibition 24 h” value under setting [2] is given as 1%.
Consider `Nc1ccc(S(=O)(=O)[N-]c2nccs2)cc1.[Na+]` [Sulfathiazole (sodium)], for which the “Percentage of motility inhibition 0 h” value under setting [1] is listed as 15%. For the same molecule, the “Percentage of motility inhibition 24 h” value under setting [2] is given as 6%.
The corresponding values for `Cc1cc(NS(=O)(=O)c2ccc(N)cc2)nc(C)n1` [Sulfisomidin] are 26% and 10%.
On the same counts, the results for `CNCC(O)c1ccc(O)cc1.Cl` (stereo not drawn) [Synephrine (hydrochloride)] are 0% and 4%.
For `CC(=O)OC[C@]12C[C@H](OC(=O)CC(C)C)C(C)=C[C@H]1O[C@@H]1[C@H](O)[C@@H](OC(C)=O)[C@@]2(C)[C@]12CO2` [T-2 Toxin], for the setting “110 µM”, the “Percentage of motility inhibition 0 h” value is 11% and the “Percentage of motility inhibition 24 h” value amounted to 2%.
On to `Cc1ccc(CCCO)c(NCc2ccc3nc(NCCCN4CCOCC4)n(Cc4nc(C)ccc4O)c3c2)c1` [TMC353121], for which the “Percentage of motility inhibition 0 h” value under setting [1] worked out at 25%. Further, the “Percentage of motility inhibition 24 h” value under setting [2] is reported as 4%.
On the same counts, the results for `C=C1CC[C@]2(C)CC[C@]3(C)[C@H](CC[C@@H]4[C@@]5(C)CC[C@H](O)C(C)(C)[C@@H]5CC[C@]43C)[C@H]2[C@@H]1C` [Taraxasterol] are 1% and 2%.
On the same counts, the results for `CCN(CC)c1nc2c(S(=O)(=O)c3ccc(Cl)cc3)nnn2c2cc(OC)c(OC)cc12` [Targocil] are 21% and 11%.
Turning to `C[C@H](CCC(=O)NCCS(=O)(=O)[O-])[C@H]1CC[C@H]2[C@@H]3CC[C@@H]4C[C@H](O)CC[C@]4(C)[C@H]3C[C@H](O)[C@]12C.[Na+]` [Taurodeoxycholic acid (sodium hydrate)], the “Percentage of motility inhibition 0 h” value under setting [1] is recorded as 8%. The “Percentage of motility inhibition 24 h” value under setting [2] worked out at 3%.
On the same counts, the results for `C[C@@H]1O[C@@H](Oc2cc(O)c3c(c2)O[C@H](c2ccc(O)c(O)c2)[C@@H](O)C3=O)[C@H](O)[C@H](O)[C@H]1O` [Taxifolin 7‐O‐rhamnoside] are 33% and 12%.
The corresponding values for `COc1cc(O)c2c(=O)cc(-c3ccccc3)oc2c1` [Tecto chrysin] are 0% and 11%.
On the same counts, the results for `COc1c(O[C@@H]2O[C@H](CO[C@@H]3OC[C@@H](O)[C@H](O)[C@H]3O)[C@@H](O)[C@H](O)[C@H]2O)cc2occ(-c3ccc(O)cc3)c(=O)c2c1O` [Tectorigenin 7‐O‐Xylosyl Glucoside] are 0% and 1%.
Consider `Cn1nnc(-c2ccc(-c3ccc(N4C[C@H](COP(=O)(O)O)OC4=O)cc3F)cn2)n1` [Tedizolid (phosphate)], for which the “Percentage of motility inhibition 0 h” value under setting [1] is 10%. For the same molecule, the “Percentage of motility inhibition 24 h” value under setting [2] was found to be 12%.
On the same counts, the results for `CC(C)OC(=O)OCOP(=O)(CO[C@H](C)Cn1cnc2c(N)ncnc21)OCOC(=O)OC(C)C.O=C(O)/C=C/C(=O)O` [Tenofovir (Disoproxil Fumarate)] are 5% and 1%.
The corresponding values for `CC(C)OC(=O)OCOP(=O)(CO[C@H](C)Cn1cnc2c(N)ncnc21)OCOC(=O)OC(C)C` [Tenofovir (Disoproxil)] are 23% and 7%.
Regarding `COc1cc(/C=C/C(=O)O[C@H]2[C@H](O)[C@@H](CO)O[C@@]2(CO)O[C@H]2O[C@H](COC(=O)c3ccc(O)cc3)[C@@H](O)[C@H](O)[C@H]2O)cc(OC)c1OC` [Tenuifoliside A], the “Percentage of motility inhibition 0 h” value under setting [1] was 0%. For the same molecule, the “Percentage of motility inhibition 24 h” value under setting [2] was found to be 15%.
On the same counts, the results for `CC1(C)CC[C@]2(C(=O)O)CCC3=C([C@@H](CCl)C[C@@H]4[C@@]5(C)C[C@H](O)[C@H](O)[C@@](C)(C(=O)O)[C@@H]5CC[C@@]34C)[C@@H]2C1` [Tenuigenin] are 11% and 11%.
On the same counts, the results for `CC1(O)CCC(C(C)(C)O)CC1.O` (stereo not drawn) [Terpin (hydrate)] are 9% and 5%.
The corresponding values for `CN(C)[C@@H]1C(=O)C(C(N)=O)=C(O)[C@@]2(O)C(=O)C3=C(O)c4c(O)cccc4[C@@](C)(O)[C@H]3C[C@@H]12.Cl` [Tetracycline (hydrochloride)] are 26% and 11%.
For `COc1cc2c(cc1OC)C1Cc3ccc4c(c3CN1CC2)OCO4` (stereo not drawn) [Tetrahydroepiberberine], the “Percentage of motility inhibition 0 h” value under setting [1] amounted to 10%. Also, the “Percentage of motility inhibition 24 h” value under setting [2] is given as 3%.
Turning to `COc1cc2c(cc1OC)C1Cc3ccc(OC)c(OC)c3CN1CC2.Cl` (stereo not drawn) [Tetrahydropalmatine (hydrochloride)], the “Percentage of motility inhibition 0 h” value under setting [1] came to 0%. In addition, the “Percentage of motility inhibition 24 h” value under setting [2] was 9% and 7%.
As for `O=C(O[C@@H]1Cc2c(O)cc(O)cc2O[C@@H]1c1cc(=O)c(O)c2c(O)c(O)cc([C@H]3Oc4cc(O)cc(O)c4C[C@H]3O)c2c1)c1cc(O)c(O)c(O)c1` [Theaflavin‐3‐gallate], the “Percentage of motility inhibition 0 h” value under setting [1] stood at 8%. Moreover, the “Percentage of motility inhibition 24 h” value under setting [2] is reported as 22%.
The corresponding values for `O=c1cccc2n1C[C@H]1C[C@@H]2CN2CCCC[C@@H]12` [Thermopsine] are 0% and 2%.
The corresponding values for `Cc1ncc(C[n+]2csc(CCO)c2C)c(N)n1.Cl.[Cl-]` [Thiamine (hydrochloride)] are 2% and 13%.
On to `Cc1ncc(C[n+]2csc(CCO)c2C)c(N)n1.O=[N+]([O-])[O-]` [Thiamine nitrate], for which, under setting [1], the “Percentage of motility inhibition 0 h” value came out at 12%. For the same molecule, the “Percentage of motility inhibition 24 h” value under setting [2] was 1%.
Regarding `C=C[C@]1(C)C[C@@H](OC(=O)CSCCN(CC)CC)[C@]2(C)[C@H](C)CC[C@]3(CCC(=O)[C@H]32)[C@@H](C)[C@@H]1O.O=C(O)/C=C/C(=O)O` [Tiamulin (fumarate)], the “Percentage of motility inhibition 0 h” value under setting [1] came to 9%. For the same molecule, the “Percentage of motility inhibition 24 h” value under setting [2] came to 9%.
Regarding `C/C=C(\C)C(=O)OC1C[C@H]2CC[C@@H](C1)N2C` (stereo partly drawn) [Tigloidin], the “Percentage of motility inhibition 0 h” value under setting [1] came out at 0%. Moreover, the “Percentage of motility inhibition 24 h” value under setting [2] is given as 0%.
Turning to `COc1ccc(-c2cc(=O)c3c(O)cc(O[C@@H]4O[C@H](CO)[C@@H](O)[C@H](O)[C@H]4O)cc3o2)cc1` [Tilianin], the “Percentage of motility inhibition 0 h” value under setting [1] is 13%. Besides, the “Percentage of motility inhibition 24 h” value under setting [2] is recorded as 3%.
On to `CC[C@H]1OC(=O)C[C@@H](O)[C@H](C)[C@@H](O[C@@H]2O[C@H](C)[C@@H](O)[C@H](N(C)C)[C@H]2O)[C@@H](CCN2C[C@H](C)C[C@H](C)C2)C[C@@H](C)C(=O)/C=C/C(C)=C/[C@@H]1CO[C@@H]1O[C@H](C)[C@@H](O)[C@@H](OC)[C@H]1OC.O=P(O)(O)O` [Tilmicosin (phosphate)], for which the “Percentage of motility inhibition 0 h” value under setting [1] was 6%. Further, the “Percentage of motility inhibition 24 h” value under setting [2] is 10%.
The corresponding values for `CC(C)=CCC[C@H](C)[C@@H]1CC[C@]2(C)C3=C(CC[C@@]12C)[C@@]1(C)CC[C@H](O)C(C)(C)[C@@H]1CC3` [Tirucallol] are 12% and 39%.
Consider `Cl.c1ccc(CC2=NCCN2)cc1` [Tolazoline (hydrochloride)], for which the “Percentage of motility inhibition 0 h” value under setting [1] is 21%. Under setting [2], the “Percentage of motility inhibition 24 h” value is listed as 0%.
Regarding `Cc1cc(-n2c(=O)[nH]c(=O)n(C)c2=O)ccc1Oc1ccc(S(=O)(=O)C(F)(F)F)cc1` [Toltrazuril (sulfone)], the “Percentage of motility inhibition 0 h” value under setting [1] came to 38%. Under setting [2], the “Percentage of motility inhibition 24 h” value was determined as 12%.
The corresponding values for `CC[C@@]1(O)C(=O)OCc2c1cc1n(c2=O)Cc2cc3c(CN(C)C)c(O)ccc3nc2-1.Cl` [Topotecan (Hydrochloride)] are 5% and 3%.
The corresponding values for `CC[C@@]1(O)C(=O)OCc2c1cc1n(c2=O)Cc2cc3c(CN(C)C)c(O)ccc3nc2-1.Cl` [Topotecan (hydrochloride)] are 19% and 6%.
The corresponding values for `O=c1cc(-c2ccccc2)oc2cc(O)cc(O[C@@H]3O[C@H](CO)[C@@H](O)[C@H](O)[C@H]3O)c12` [Toringin] are 0% and 2%.
As to `C[C@@H]1CC[C@]2(C(=O)O)CC[C@]3(C)C(=CC[C@@H]4[C@@]5(C)C[C@@H](O)[C@H](O)C(C)(C)[C@@H]5CC[C@]43C)[C@@H]2[C@]1(C)O` [Tormentic acid], the “Percentage of motility inhibition 0 h” value under setting [1] worked out at 3%. Further, the “Percentage of motility inhibition 24 h” value under setting [2] is 5%.
